Data: patent US4792614A, “Substituted furans as inhibitors of 3-hydroxy-3-methylglutaryl-coa reductase” (American Home Products Corporation, priority 1987, dated 1988)

Target: T1, HMG--CoA reductase (Rattus norvegicus, UniProt P51639)
T1 construct: the microsomal fraction is isolated by differential ultracentrifugation to obtain HMG--CoA reductase enzyme; from tissue; host or cells: rat liver, microsomal fraction
T1 sequence (P51639 1-887): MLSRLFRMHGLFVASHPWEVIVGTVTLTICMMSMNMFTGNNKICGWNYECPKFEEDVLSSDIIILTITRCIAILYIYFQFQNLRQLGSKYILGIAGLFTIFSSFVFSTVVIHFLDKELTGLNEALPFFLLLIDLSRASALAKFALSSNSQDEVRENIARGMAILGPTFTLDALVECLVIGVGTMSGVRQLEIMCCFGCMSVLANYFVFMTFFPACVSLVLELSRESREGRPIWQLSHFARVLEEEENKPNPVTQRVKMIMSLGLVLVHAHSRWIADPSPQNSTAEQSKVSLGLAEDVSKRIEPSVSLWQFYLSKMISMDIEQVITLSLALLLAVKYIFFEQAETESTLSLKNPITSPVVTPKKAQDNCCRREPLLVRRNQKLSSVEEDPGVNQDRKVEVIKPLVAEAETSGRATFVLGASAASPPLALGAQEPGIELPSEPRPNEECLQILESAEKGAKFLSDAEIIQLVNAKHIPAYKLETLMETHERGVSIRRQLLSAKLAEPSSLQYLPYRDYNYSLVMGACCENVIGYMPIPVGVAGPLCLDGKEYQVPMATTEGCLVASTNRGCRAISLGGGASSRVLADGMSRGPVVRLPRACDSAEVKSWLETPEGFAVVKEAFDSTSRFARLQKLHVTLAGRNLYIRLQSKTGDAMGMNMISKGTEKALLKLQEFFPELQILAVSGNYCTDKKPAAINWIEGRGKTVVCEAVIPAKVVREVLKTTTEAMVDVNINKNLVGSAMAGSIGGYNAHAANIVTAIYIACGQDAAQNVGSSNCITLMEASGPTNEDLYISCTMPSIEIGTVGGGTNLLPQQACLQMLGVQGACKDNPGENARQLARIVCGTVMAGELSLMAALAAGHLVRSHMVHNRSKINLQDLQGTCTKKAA
Assay: Inhibition of HMG-CoA reductase (microsomal enzyme from rat liver, [14C] HMG-CoA reduction to mevalonolactone)
Type: biochemical
Conditions: rat liver microsomal fraction; compound tested as the dihydroxy sodium carboxylate, 10^-3 to 10^-6 M; 20 minute incubation at 37° C.
Excerpt: The HMG--CoA reductase inhibitory properties of representative compounds of this invention were established by subjecting the compounds to the following standard experimental test procedure adapted from Rodwell et al., Adv. Lipid Res. 14 1, 1976; Endo et al., FEBS Letters 72 323, 1976; and Tanzawa et al., Biochemia et Biophysica Acta 488 97, 1977.
Rat livers obtained from rats fed on a diet containing 3% cholestyramine and maintained on a reverse lighting regimen for three weeks are homogenized and the microsomal fraction is isolated by differential ultracentrifugation to obtain HMG--CoA reductase enzyme. To a preincubated (five minutes at 37° C.) solution of the compound being tested (as the dihydroxy sodium carboxylate in amounts from 10^-3 to 10^-6 M) in TEDKS100 pH (Tris®40 mM; EDTA 1 mM; dithiothreitol 5 mM; KCl 70 mM; sucrose 100 mM), 7.5 buffer or DMSO dissolved in an assay medium containing 20 μl of 2.5M KCl; 20 μl NADPH (reduced nicotinamide adenine dinucleotide phosphate) (7.5 mM); and 40 μl of labeled (RS) HMG--CoA (3--^14 C; […]; 200 μM) is added 10 μl of preincubated (five minutes at 37° C.) microsomal fraction to obtain a total volume of 125 μl. After a twenty minute incubation period at 37° C., reaction of the enzyme is terminated by addition of 10 μl of 70% HClO4. The assay tubes are then centrifuged for two minutes in a Beckman microfuge II.
To 100 μl of the supernatant liquid is added 10 μl of non-radioactivemevalonic acid lactone (0.25M in 8 mM H2 SO4). An aliquot of the sample is eluted with 8 mM H2 SO4 through Bio Rad Aminex HPX-87H (HPLC; Hewlett-Packard Model 1084B) at a flow rate of 1 mL/minute. The effluent is fractionated, Hydrofluor® is added and radioactivity of the [^14 C] mevalonolactone produced by reduction of [^14 C] HMG--CoA determined with a scintillation counter.
The percent inhibition of HMG--CoA reductase activity is obtained by comparison with a control assay devoid of the test compound. The inhibitory concentration (IC50) is calculated for the various test compounds.
In the case of `COC(=O)C[C@@H](O)C[C@H](O)/C=C/c1oc(C)cc1-c1ccccc1` [Example 2, (3S,5S,E)-7-[5-Methyl-3-Phenyl-2-Furanyl]-3,5-Dihydroxy-6-Heptenoic Acid Methyl Ester], the IC50 is reported as 99 µM. In the case of `COC(=O)C[C@@H](O)C[C@H](O)/C=C/c1ccc(-c2ccc(C(F)(F)F)cc2[N+](=O)[O-])o1` [Example 4, (3S,5S,E)-3,5-Dihydroxy-7-[5-[4-(Trifluoromethyl)-2-Nitrophenyl]-2-Furanyl]-6-Heptenoic Acid Methyl Ester], the IC50 is reported as 100 µM. In the case of `COC(=O)C[C@@H](O)C[C@H](O)/C=C/c1occc1-c1ccc(F)cc1` [Example 3, (3S,5S,E)-7-[3-(4-Fluorophenyl)-2-Furanyl]-3,5-Dihydroxy-6-Heptenoic Acid Methyl Ester], the IC50 is reported as 56 µM. For `COC(=O)C[C@@H](O)C[C@H](O)/C=C/c1oc(C)cc1-c1ccc(F)cc1` [Example 1, (3S,5S,E)-7-[5-Methyl-3-(4-Fluorophenyl)-2-Furanyl]-3,5-Dihydroxy-6-Heptenoic Acid Methyl Ester], the IC50 was 62 µM.

System: biosynthesis of cholesterol
Assay: not given
Conditions: background art; cited from earlier work
For `CC[C@H](C)C(=O)O[C@H]1CCC=C2C=C[C@H](C)[C@H](CC[C@@H]3C[C@@H](O)CC(=O)O3)[C@H]21` [compactin], the “inhibition of the biosynthesis of cholesterol (in words)” value is given as “inhibited”. For `CCC(C)C(=O)OC1CC(C)C=C2C=CC(C)C(CCC3CC(O)CC(=O)O3)C21` (stereo not drawn) [mevinolin], the “inhibition of the biosynthesis of cholesterol (in words)” value is listed as “more effectively”.
